From patent publication US20260216057A1, “PHARMACEUTICAL COMPOSITIONS FOR HERPES VIRUS” (priority 2022, published 2026)
Where two headings read alike, the source gives them in different places.

How the values were obtained:
[1] = test system: HSV-1; experiment: HSV-1 antiviral assay, cytopathic effect (CPE) inhibition in vero cells; type: cell-based; settings: 4 days, read-out: in vitro EC50 against HSV-1
Description: (§1) Cytopathic Effect (CPE) Inhibition Assay
(§2) Cell culture—vero cells were cultured in Dulbecco's Modified Eagle Medium (DMEM) supplemented with 10% fetal bovine serum and 100 units/mL penicillin and streptomycin. The cells were passaged 2-3 times per week to maintain sub-confluent densities.
HSV-1 antiviral assay—vero cells were seeded into 96-well plates at a density of 2.5×10^3 cells per well and allowed to attach overnight. Following attachment, the media was replaced with 50 μL of infection medium (DMEM supplemented with 2% fetal bovine serum and 100 units/mL penicillin and streptomycin). A Tecan D300e digital dispenser was then used to add compounds to the culture using an 8-point 3-fold serial dilution format. The DMSO concentration was normalized to 0.5% for all treatments. Following compound addition, 50 μL of infection medium containing 80 TCID50 HSV-1 was added to the cells and incubated at 37° C. for 4 days. After the incubation, the plates were equilibrated to room temperature, the media was removed, and 60 μL of a 1:1 dilution of Cell titer glow and phosphate buffered saline was added to the cells. Following a 5-minute incubation, cell viability was quantified by measuring luminance using a Tecan Infinite M1000 Pro plate reader.
(§3) Vero cells were cultured in Dulbecco's Modified Eagle Medium (DMEM) supplemented with 10% foetal bovine serum and 100 units/mL penicillin and streptomycin. The cells were passaged 2-3 times per week to maintain sub-confluent densities.
Vero cells were seeded into 96-well plates at a density of 2.5×10^3 cells per well and allowed to attach overnight. Following attachment, the media was replaced with 50 μL of infection medium (DMEM supplemented with 2% foetal bovine serum and 100 units/mL penicillin and streptomycin). A Tecan D300e digital dispenser was then used to add compounds to the culture using an 8-point 3-fold serial dilution format. The DMSO concentration was normalized to 0.5% for all treatments. […] Following a 5-minute incubation, cell viability was quantified by measuring luminance using a Tecan Infinite M1000 Pro plate reader.

[2] = Wald et al. (2014); cited from earlier work
[3] = test system: HSV-1; settings: Field et al. (2013); read-out: in-vitro EC50 against HSV-1; cited from earlier work
[4] = test system: HSV-2 G strain; experiment: HSV-2 antiviral assay, cytopathic effect (CPE) inhibition in vero cells; type: cell-based
Description: as §1, §2
(§4) HSV-2 antiviral assay—vero cells were seeded into 96-well plates at a density of 1.0×10^4 cells per well and allowed to attach overnight. Following attachment, the media was replaced with 50 μL of infection medium (DMEM supplemented with 2% fetal bovine serum and 100 units/mL penicillin and streptomycin). A Tecan D300e digital dispenser was then used to add compounds to the culture using an 8-point 3-fold serial dilution format. The DMSO concentration was normalized to 0.5% for all treatments. Following compound addition, 50 μL of infection medium containing 160 TCID50 HSV-2 G strain was added to the cells and incubated at 37° C. for 5 days. After the incubation, 10 μL/well of WST-8 chromogenic reagent was added and the plates incubated at 37° C. for 3 hours. Following the incubation, cell viability was quantified by measuring the absorbance at 460 nm and 620 nm using a Tecan Infinite M1000 Pro plate reader.
as §3
as §4, with “Vero” for “HSV-2 antiviral assay—vero”, “foetal” for “fetal”

[5] = test system: genital HSV; settings: oral, 28 days, cited from earlier work
[6] = Allometric scaling of multi-species PK data to human
[7] = Example 12: Compound 1 (Form A) aqueous suspension SC PK study in dog; type: in vivo, male non-naïve Beagle dogs; settings: 10 mg/kg, following an initial drug burst
Description: An aqueous suspension of Compound 1 free form (Form A) in a 0.9% NaCl+0.5% poloxamer 188 vehicle at a concentration of 5.0 mg/mL was prepared as follows: • 1) Vehicle (0.9% w/w NaCl and 0.5% w/w poloxamer 188) was prepared by dissolving NaCl and poloxamer 188 in water. • 2) Appropriate amount of Compound 1 free form was weighed and added to the vehicle. • 3) The mixture was stirred for 15 minutes, then vortexed for 1 minute and then sonicated for 10 minutes. • 4) The final dosing formulation was a homogenous white cloudy suspension.
Male non-naïve beagles with ~10 kg body weight were used for the dog PK study. The animals had free access to food and water. The prepared suspension was administered via subcutaneous injection to each animal group (n=3) with a dosing volume of 2 mL/kg to achieve a 10 mg/kg dose.
At each time point, approximately 0.5 mL of whole blood was collected into K2EDTA tubes. Blood samples were put on ice and centrifuged at 2000 g for 5 min to obtain plasma samples within 15 minutes. Plasma samples were stored at approximately −70° C. until analyzed by LC-MS.

[8] = Example 7: Compound 1 aqueous suspension SC PK study in dog; type: in vivo, male non-naïve Beagle dogs; settings: aqueous suspension (Form A), 10 mg/kg
Description: The LC-MS methodology and conditions used to analyse the helicase-primase inhibitor Compound 1 in plasma samples from the sub-cutaneous injection PK studies (Examples 7 and 10-12) are described in Table 3 and Table 4. An aqueous suspension of crystalline Compound 1 (Form A) was prepared in a 0.9% NaCl+0.5% poloxamer 188 vehicle at a concentration of 5.0 mg/mL as described in Example 4. The suspension was then dosed to male non-naïve beagle dogs at 10 mg/kg according to the Example 4 animal dosing method.

[9] = Human alphaherpesvirus 1, Vero, 96 h
[10] = Human alphaherpesvirus 2, Vero, 120 h, CPE assay, vero cells, 5 days, read-out: in vitro EC50 against HSV-2

SMILES	EC50 [1, 9]	human biological terminal half-life [2]	EC50 [3]	EC50 [4, 10]	rate of genital HSV shedding ([5]; at high doses, vs placebo)	number of days with lesions ([5]; men and women with genital herpes)	predicted human clearance [6]	EC50 [1]	prolonged exposure out to [7]	prolonged exposure out to (length of the study) [8]	EC50 ([4]; CPE assay, vero cells, 5 days, read-out: in vitro EC50 against HSV-2)	EC50 ([4]; Human alphaherpesvirus 2, Vero, Example 9, n=35, read-out: EC50 in the HSV-2 antiviral assay)
Cc1nc(N(C)C(=O)Cc2ccc(-c3ccccn3)cc2)sc1S(N)(=O)=O [pritelivir, N-methyl-N-(4-methyl-5-sulfamoyl-1,3-thiazol-2-yl)-2-[4-(pyridin-2-yl)phenyl]acetamide]	47 nM	up to 80 hours	26 nM	55 nM	reduced the rate of genital HSV shedding	reduced the number of days with lesions						
Cc1nc(N2CCCN(c3ccc(-c4cc(F)ccc4F)cc3)C2=O)sc1S(N)(=O)=O [Compound 1, 2-(3-(2′,5′-difluoro-[1,1′-biphenyl]-4-yl)-2-oxotetrahydropyrimidin-1(2H)-yl)-4-methylthiazole-5-sulfonamide]	~19 nM			~11 nM			0.06 L/h	15 nM	at least 220 days	at least 1392 hours	13 nM	11 nM
